This is an account of results in patent publication US20240124408A1 (Sanofi, priority 2020, published 2024).

One experiment concerns the target T1, human TRPM8 (Homo sapiens, UniProt Q7Z2W7).
T1 construct: expressed in transfected cells; host or cells: CHO (p658 mammalian expression vector)
The experiment in a line: In vitro human TRPM8 fluorescence calcium flux assay (recombinant CHO cells, Fluo4-AM, FDSS6000). It is filed as cell-based. Conditions: recombinant CHO cells expressing human TRPM8; menthol-related EC50, normalized to 100 μM menthol. As for the experimental part:
(§1) In Vitro Pig and Human TRPM8 Fluorescence Calcium Flux Assays
(§2) For functional expression of TRPM8, the full-length cDNA encoding human (NM_024080) and pig (XM_001927892.1) TRPM8 sequences were subcloned into p658 and pcDNA5/FRT/TO mammalian expression vectors, respectively. Engineered recombinant CHO cell lines expressing human or pig TRPM8 were generated. Culture media was Ham-F12 with 10% FCS for both lines, and for the pig cell line only 400 μg/ml hygromycin B and 30 μg/mL blasticidin were added as selection antibiotics (all reagents were obtained from Invitrogen, Fisher Scientific). Cells were grown in culture flasks up to 80% confluence where they were harvested using accutase (Sigma, MO, USA) to detach the cells by enzymatic dissociation and either seeded directly into assay plates or cryopreserved for future use.
(§3) For calcium flux assays, cells were plated into clear base poly-D-lysine coated 384-well plates (BD Biosciences, NJ USA) at a density of 15,000 cells per well in appropriate culture medium and grown overnight. The following day, all medium was removed then the cells were incubated with 2 μM of Fluo4-AM Dye (Molecular Probes) prepared in complete HBSS assay buffer containing 20 mM HEPES, 0.1% BSA, and 2.5 mM probenecid at room temperature for one hour. Following incubation, plates were inserted into a FDSS6000 instrument (Hamamatsu, Photonics, Japan) instrument, where cells were challenged with compounds of the formula (at varying concentrations) and intracellular calcium was measured kinetically for 3 min after addition.
(§4) This protocol allowed the determination of an EC50 value, from the sixteen-point dose response data, for each compound of the formula tested. Maximal fluorescence intensity achieved upon addition of 100 μM menthol (stock solution prepared in ethanol from solid, Sigma-Aldrich) was exported from the FDSS and further analyzed using IDBS XLFit 5. Data were normalized to the average 100 μM menthol response (maximum control wells) included in each plate. The dose response curves from the average of wells for each data point were analyzed by using nonlinear regression of sigmoidal dose response (formula 205). Finally, the (menthol-related) EC50 values (Half maximal effective concentration) were calculated with the best-fit dose curve determined by IDBS XLFit 5 software.

The target of a further experiment is T2, pig TRPM8 (Sus scrofa, UniProt F1SM15).
T2 construct: expressed in transfected cells; host or cells: CHO (pcDNA5/FRT/TO vector; hygromycin B and blasticidin selection)
The experiment in a line: In vitro pig TRPM8 fluorescence calcium flux assay (recombinant CHO cells, Fluo4-AM, FDSS6000). Format: cell-based. Conditions: recombinant CHO cells expressing pig TRPM8; menthol-related EC50, normalized to 100 μM menthol. As for the experimental part:
as §1, §2, §3, §4
In general terms: A change in cytosolic calcium serves as a functional read-out for many receptors and channels.

Usually EC50 stands for the midpoint of the concentration-response curve.

T2 sequence (F1SM15 1-1104): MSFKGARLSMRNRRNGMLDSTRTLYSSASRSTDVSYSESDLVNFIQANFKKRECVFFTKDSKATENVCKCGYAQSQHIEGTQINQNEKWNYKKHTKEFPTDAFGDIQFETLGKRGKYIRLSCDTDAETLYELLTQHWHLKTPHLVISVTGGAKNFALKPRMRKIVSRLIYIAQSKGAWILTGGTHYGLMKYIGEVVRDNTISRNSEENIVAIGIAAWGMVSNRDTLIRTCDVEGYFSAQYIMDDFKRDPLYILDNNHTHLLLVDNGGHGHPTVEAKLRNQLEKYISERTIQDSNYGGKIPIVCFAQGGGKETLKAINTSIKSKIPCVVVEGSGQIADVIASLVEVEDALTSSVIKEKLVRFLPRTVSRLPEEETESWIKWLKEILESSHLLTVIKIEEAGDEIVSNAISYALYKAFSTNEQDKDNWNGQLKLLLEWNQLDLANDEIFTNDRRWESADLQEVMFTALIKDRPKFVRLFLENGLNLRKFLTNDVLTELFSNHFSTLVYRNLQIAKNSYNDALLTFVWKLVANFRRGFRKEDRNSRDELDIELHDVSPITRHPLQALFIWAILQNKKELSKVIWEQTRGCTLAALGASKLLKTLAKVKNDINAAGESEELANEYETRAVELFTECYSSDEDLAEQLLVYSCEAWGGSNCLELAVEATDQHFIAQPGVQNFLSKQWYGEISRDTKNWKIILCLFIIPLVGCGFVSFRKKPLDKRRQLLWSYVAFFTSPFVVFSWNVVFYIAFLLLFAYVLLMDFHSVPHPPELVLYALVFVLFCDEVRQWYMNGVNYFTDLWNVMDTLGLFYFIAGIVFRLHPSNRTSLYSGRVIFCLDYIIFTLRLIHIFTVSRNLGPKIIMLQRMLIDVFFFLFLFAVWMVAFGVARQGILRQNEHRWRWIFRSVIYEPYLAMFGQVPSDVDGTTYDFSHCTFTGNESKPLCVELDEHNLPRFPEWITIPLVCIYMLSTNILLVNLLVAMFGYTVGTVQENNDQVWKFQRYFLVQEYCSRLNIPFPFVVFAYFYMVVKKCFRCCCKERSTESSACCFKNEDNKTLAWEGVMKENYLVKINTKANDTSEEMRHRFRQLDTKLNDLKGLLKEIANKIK
T1 sequence (Q7Z2W7 whole entry): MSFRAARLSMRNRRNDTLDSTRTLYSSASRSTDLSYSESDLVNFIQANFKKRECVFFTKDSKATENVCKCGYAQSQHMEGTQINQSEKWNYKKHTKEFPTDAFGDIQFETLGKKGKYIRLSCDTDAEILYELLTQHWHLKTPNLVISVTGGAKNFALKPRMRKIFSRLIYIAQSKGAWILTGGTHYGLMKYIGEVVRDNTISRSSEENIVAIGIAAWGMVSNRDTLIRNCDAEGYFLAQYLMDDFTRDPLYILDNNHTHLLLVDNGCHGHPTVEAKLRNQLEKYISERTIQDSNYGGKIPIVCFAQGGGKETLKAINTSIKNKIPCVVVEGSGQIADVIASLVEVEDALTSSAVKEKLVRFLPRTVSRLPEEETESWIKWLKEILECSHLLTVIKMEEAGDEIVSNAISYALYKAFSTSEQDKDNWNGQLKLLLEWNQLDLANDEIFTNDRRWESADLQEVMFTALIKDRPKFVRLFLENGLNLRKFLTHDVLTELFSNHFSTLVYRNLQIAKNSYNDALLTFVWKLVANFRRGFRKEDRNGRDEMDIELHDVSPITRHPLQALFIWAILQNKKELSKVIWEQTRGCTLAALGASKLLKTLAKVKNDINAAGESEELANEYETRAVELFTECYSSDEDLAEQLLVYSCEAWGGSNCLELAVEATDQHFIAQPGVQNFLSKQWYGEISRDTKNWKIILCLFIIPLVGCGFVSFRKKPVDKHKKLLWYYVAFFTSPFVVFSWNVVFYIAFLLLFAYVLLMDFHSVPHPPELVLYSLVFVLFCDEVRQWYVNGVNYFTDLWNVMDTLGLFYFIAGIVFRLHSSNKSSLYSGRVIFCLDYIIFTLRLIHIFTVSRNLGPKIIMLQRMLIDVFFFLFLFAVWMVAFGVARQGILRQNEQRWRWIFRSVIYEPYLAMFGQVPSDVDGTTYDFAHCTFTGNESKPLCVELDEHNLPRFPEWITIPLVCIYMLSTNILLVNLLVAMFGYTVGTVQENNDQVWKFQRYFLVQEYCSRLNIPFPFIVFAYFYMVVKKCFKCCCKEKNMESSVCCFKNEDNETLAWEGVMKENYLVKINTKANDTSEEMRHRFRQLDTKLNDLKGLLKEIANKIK

For the compound `CC(C)[C@@H]1CC[C@@H](C)C[C@@]1(O)C(=O)NCCc1ccc(O)cc1O` [Example 173, (1S,2S,5R)-N-[2-(2,4-dihydroxyphenyl)ethyl]-1-hydroxy-2-isopropyl-5-methyl-cyclohexanecarboxamide], the EC50 on human TRPM8 was 24.6 nM; on pig TRPM8, 21.7 nM.

Consider `Cc1[nH]c2ccccc2c1CCNC(=O)[C@]1(O)C[C@H](C)CC[C@H]1C(C)C` [Example 153, (1S,2S,5R)-1-hydroxy-2-isopropyl-5-methyl-N-[2-(2-methyl-1H-indol-3-yl)ethyl]cyclohexanecarboxamide], for which the EC50 on human TRPM8 is 130 nM; at pig TRPM8, 76 nM.

On to `CC(C)[C@@H]1CC[C@@H](C)C[C@@]1(O)C(=O)NCCc1c[nH]c2ccc(O)cc12` [Example 169, (1S,2S,5R)-1-hydroxy-N-[2-(5-hydroxy-1H-indol-3-yl)ethyl]-2-isopropyl-5-methyl-cyclohexanecarboxamide], for which the EC50 on human TRPM8 amounted to 20.9 nM; at pig TRPM8, 27.4 nM.

Regarding `CC(C)[C@@H]1CC[C@@H](C)C[C@@]1(O)C(=O)NCC(=O)c1sccc1Cl` [Example 148, (1S,2S,5R)-N-[2-(3-chloro-2-thienyl)-2-oxo-ethyl]-1-hydroxy-2-isopropyl-5-methyl-cyclohexanecarboxamide], the EC50 on human TRPM8 and on pig TRPM8 was 4 nM throughout.

Turning to `COc1ccc(C(=O)CNC(=O)[C@]2(O)C[C@H](C)CC[C@H]2C(C)C)c(OC)c1` [Example 99, (1S,2S,5R)—N-(2-(2,4-dimethoxyphenyl)-2-oxoethyl)-1-hydroxy-2-isopropyl-5-methylcyclohexane-1-carboxamide], the figures for the EC50 at human TRPM8 and on pig TRPM8 were 110 nM and 99.1 nM, respectively.

In the case of `CC(C)[C@@H]1CC[C@@H](C)C[C@@]1(O)C(=O)NCCc1cc(O)ccc1Br` [Example 172, (1S,2S,5R)-N-[2-(2-bromo-5-hydroxy-phenyl)ethyl]-1-hydroxy-2-isopropyl-5-methyl-cyclohexanecarboxamide], the figures for the EC50 on human TRPM8 and on pig TRPM8 were 9.7 nM and 19 nM, respectively.

Regarding `[2H]C(O)(CNC(=O)[C@]1(O)C[C@H](C)CC[C@H]1C(C)C)c1ccccc1` (single isomer, unassigned) [Example 91], the EC50 on human TRPM8 turned out to be 19 nM; on pig TRPM8 it was 5.2 nM.

`CC(C)[C@@H]1CC[C@@H](C)C[C@@]1(O)C(=O)NCC(=O)c1cc(F)ccc1F` [Example 139, (1S,2S,5R)-N-[2-(2,5-difluorophenyl)-2-oxo-ethyl]-1-hydroxy-2-isopropyl-5-methyl-cyclohexanecarboxamide]: the EC50 on human TRPM8 came out at 5.3 nM; at pig TRPM8, 1.7 nM.

For `CC(C)[C@@H]1CC[C@@H](C)C[C@@]1(O)C(=O)NCC1OCCc2ccccc21` (single isomer, unassigned) [Example 98], the EC50 at human TRPM8 was 52.8 nM; at pig TRPM8, 64.7 nM.

As for `Cc1cccc(C(=O)CNC(=O)[C@]2(O)C[C@H](C)CC[C@H]2C(C)C)c1` [Example 141, (1S,2S,5R)-1-hydroxy-2-isopropyl-5-methyl-N-[2-(m-tolyl)-2-oxo-ethyl]cyclohexanecarboxamide], the EC50 on human TRPM8 came to 2.7 nM; on pig TRPM8 it was 1.2 nM.

Consider `CC(C)[C@@H]1CC[C@@H](C)C[C@@]1(O)C(=O)NCC1OC(=O)c2ccccc21` (mixture of isomers) [Example 17, (1S,2S,5R)-1-hydroxy-2-isopropyl-5-methyl-N-(((1RS)-3-oxo-1,3-dihydroisobenzofuran-1-yl)methyl) cyclohexane-1-carboxamide], for which the EC50 at human TRPM8 came to 410 nM; at pig TRPM8 it was 191 nM.

As to `CC(C)[C@@H]1CC[C@@H](C)C[C@@]1(O)C(=O)NC1CCC(F)(F)CC1` [Example 147, (1S,2S,5R)-N-(4,4-difluorocyclohexyl)-1-hydroxy-2-isopropyl-5-methyl-cyclohexanecarboxamide], the values for the EC50 on human TRPM8 and on pig TRPM8 were 1160 nM and 901 nM, respectively.

As for `CC(C)[C@@H]1CC[C@@H](C)C[C@@]1(O)C(=O)NCC(=O)c1ccc(Cl)cc1` [Example 134, (1S,2S,5R)-N-[2-(4-chlorophenyl)-2-oxo-ethyl]-1-hydroxy-2-isopropyl-5-methyl-cyclohexanecarboxamide], the EC50 was determined as 3.4 nM at human TRPM8 and 1.3 nM at pig TRPM8.

For the compound `CC(C)[C@@H]1CC[C@@H](C)C[C@@]1(O)C(=O)NCC1(O)CCc2ccccc21` (single isomer, unassigned) [Example 176], the results for the 50% effective concentration (EC50) at human TRPM8 and at pig TRPM8 were 1.1 nM and 1.3 nM, respectively.

As for `CC(C)[C@@H]1CC[C@@H](C)C[C@@]1(O)C(=O)NCCc1ccc(S(N)(=O)=O)cc1` [Example 118, (1S,2S,5R)-1-hydroxy-2-isopropyl-5-methyl-N-[2-(4-sulfamoylphenyl)ethyl]cyclohexanecarboxamide], the EC50 is 557 nM on human TRPM8 and 264 nM at pig TRPM8.

Turning to `CC(C)[C@@H]1CC[C@@H](C)C[C@@]1(O)C(=O)NC1CCOC1=O` (stereo partly drawn) [Example 112, (1S,2S,5R)-1-hydroxy-2-isopropyl-5-methyl-N-(2-oxotetrahydrofuran-3-yl)cyclohexane-1-carboxamide], the EC50 on human TRPM8 is 1580 nM; at pig TRPM8, 892 nM.

Turning to `CC(C)[C@@H]1CC[C@@H](C)C[C@@]1(O)C(=O)NCC(=O)c1cc(F)cc(F)c1` [Example 138, (1S,2S,5R)-N-[2-(3,5-difluorophenyl)-2-oxo-ethyl]-1-hydroxy-2-isopropyl-5-methyl-cyclohexanecarboxamide], the figures for the EC50 at human TRPM8 and at pig TRPM8 were 3.8 nM and 1.7 nM, respectively.

With `CC(C)[C@@H]1CC[C@@H](C)C[C@@]1(O)C(=O)N[C@H]1COc2ccccc2C1` [Example 95, (1S,2S,5R)—N-((3R)-chroman-3-yl)-1-hydroxy-2-isopropyl-5-methylcyclohexane-1-carboxamide], the results for the EC50 at human TRPM8 and at pig TRPM8 were 3.6 nM and 3.1 nM, respectively.

For `CC(C)[C@@H]1CC[C@@H](C)C[C@@]1(O)C(=O)NCC(=O)c1cccc(O)c1O` [Example 104, (1S,2S,5R)—N-(2-(2,3-dihydroxyphenyl)-2-oxoethyl)-1-hydroxy-2-isopropyl-5-methylcyclohexane-1-carboxamide], the results for the EC50 on human TRPM8 and at pig TRPM8 were 1.1 nM and 0.6 nM, respectively.

In the case of `CC(C)[C@@H]1CC[C@@H](C)C[C@@]1(O)C(=O)NCC(O)(c1ccccc1)C(F)(F)F` (single isomer, unassigned) [Example 83], the results for the EC50 at human TRPM8 and on pig TRPM8 were 168 nM and 136 nM, respectively.

`Cc1cccc([C@H](O)CNC(=O)[C@]2(O)C[C@H](C)CC[C@H]2C(C)C)c1` [Example 46, (1S,2S,5R)-1-hydroxy-N-((2S)-hydroxy-2-(m-tolyl)ethyl)-2-isopropyl-5-methylcyclohexane-1-carboxamide]: the EC50 at human TRPM8 was determined as 11.9 nM; at pig TRPM8 it was 4.6 nM.

For the compound `CC(C)[C@@H]1CC[C@@H](C)C[C@@]1(O)C(=O)N[C@@H](CO)Cc1ccc(O)cc1` [Example 170, (1S,2S,5R)-1-hydroxy-N-[(1R)-1-(hydroxymethyl)-2-(4-hydroxyphenyl)ethyl]-2-isopropyl-5-methyl-cyclohexanecarboxamide], the EC50 was 37.1 nM at human TRPM8 and 60.3 nM at pig TRPM8.

Turning to `CC(C)[C@@H]1CC[C@@H](C)C[C@@]1(O)C(=O)NCC1(O)CCc2ccccc21` (single isomer, unassigned) [Example 175], the EC50 on human TRPM8 was 43 nM; on pig TRPM8 it was 535 nM.

With `CC(C)[C@@H]1CC[C@@H](C)C[C@@]1(O)C(=O)NCC(=O)c1ccc(F)cc1` [Example 135, (1S,2S,5R)-N-[2-(4-fluorophenyl)-2-oxo-ethyl]-1-hydroxy-2-isopropyl-5-methyl-cyclohexanecarboxamide], the EC50 was determined as 2.1 nM on human TRPM8 and 1.1 nM on pig TRPM8.

As for `CC(C)[C@@H]1CC[C@@H](C)C[C@@]1(O)C(=O)NCC1CCOc2ccccc21` (stereo partly drawn) [Example 103, (1S,2S,5R)—N-(chroman-4-ylmethyl)-1-hydroxy-2-isopropyl-5-methylcyclohexane-1-carboxamide], the EC50 on human TRPM8 was 18.8 nM; on pig TRPM8, 14.9 nM.

Take `CC(C)[C@@H]1CC[C@@H](C)C[C@@]1(O)C(=O)N[C@@H](C)CCc1ccc(O)cc1` [Example 168, (1S,2S,5R)-1-hydroxy-N-[(1S)-3-(4-hydroxyphenyl)-1-methyl-propyl]-2-isopropyl-5-methyl-cyclohexanecarboxamide]: the EC50 was 334 nM on human TRPM8 and 343 nM on pig TRPM8.

As to `CC(C)[C@@H]1CC[C@@H](C)C[C@@]1(O)C(=O)NC(CCO)c1cccc(O)c1` (stereo partly drawn) [Example 163, (1S,2S,5R)-1-hydroxy-N-[3-hydroxy-1-(3-hydroxyphenyl)propyl]-2-isopropyl-5-methyl-cyclohexanecarboxamide], the concentration for a half-maximal effect (EC50) at human TRPM8 was 658 nM; at pig TRPM8, 940 nM.
